Results taken from PMC9719892, “Control of parallelized bioreactors II: probabilistic quantification of carboxylic acid reductase activity for bioprocess optimization” (Bioprocess and Biosystems Engineering, 2022).

Biological target: T1, NoCAR (Nocardia otitidiscaviarum, UniProt A0A378YSF8)
T1 construct: gene lgrD_6; pETDuet, T7 promoter, co-expressed with E. coli pyrophosphatase (EcPPase, no chain) in E. coli K12 MG1655 RARE; whole cells; CAR class approx. 130 kDa
T1 sequence (A0A378YSF8 1-1156): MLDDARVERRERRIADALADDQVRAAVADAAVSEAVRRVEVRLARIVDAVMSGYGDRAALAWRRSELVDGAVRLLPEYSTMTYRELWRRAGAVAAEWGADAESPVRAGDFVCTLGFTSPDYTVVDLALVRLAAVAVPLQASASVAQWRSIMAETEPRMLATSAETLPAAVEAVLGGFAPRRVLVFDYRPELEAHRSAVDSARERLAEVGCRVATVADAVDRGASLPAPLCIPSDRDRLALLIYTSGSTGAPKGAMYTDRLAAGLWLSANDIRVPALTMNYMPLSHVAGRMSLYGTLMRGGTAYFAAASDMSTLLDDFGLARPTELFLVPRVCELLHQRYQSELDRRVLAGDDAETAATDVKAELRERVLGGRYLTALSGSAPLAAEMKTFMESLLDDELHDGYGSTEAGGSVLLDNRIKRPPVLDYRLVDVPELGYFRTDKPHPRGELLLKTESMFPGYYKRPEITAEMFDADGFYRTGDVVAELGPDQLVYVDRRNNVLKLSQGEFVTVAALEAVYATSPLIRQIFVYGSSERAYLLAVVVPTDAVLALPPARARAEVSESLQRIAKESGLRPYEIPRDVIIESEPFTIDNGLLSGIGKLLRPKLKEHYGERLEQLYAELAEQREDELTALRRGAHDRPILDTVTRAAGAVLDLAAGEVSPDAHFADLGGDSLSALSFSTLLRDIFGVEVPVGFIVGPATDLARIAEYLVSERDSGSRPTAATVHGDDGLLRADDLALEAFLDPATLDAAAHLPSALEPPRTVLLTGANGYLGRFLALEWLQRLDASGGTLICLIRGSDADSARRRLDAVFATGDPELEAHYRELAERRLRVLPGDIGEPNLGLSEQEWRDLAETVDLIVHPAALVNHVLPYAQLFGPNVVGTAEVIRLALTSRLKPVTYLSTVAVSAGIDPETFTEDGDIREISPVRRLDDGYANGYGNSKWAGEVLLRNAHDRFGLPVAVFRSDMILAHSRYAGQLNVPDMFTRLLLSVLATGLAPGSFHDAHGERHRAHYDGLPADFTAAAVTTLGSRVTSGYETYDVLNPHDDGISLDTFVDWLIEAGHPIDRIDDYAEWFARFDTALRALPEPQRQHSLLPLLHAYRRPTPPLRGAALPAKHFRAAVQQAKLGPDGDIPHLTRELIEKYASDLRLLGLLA
Test: whole-cell biotransformation, ABAO assay of 3-hydroxybenzaldehyde at […] nm
Type: cell-based
Settings: 2.5 mM substrate in PBS / minimal medium with glucose, growing E. coli cells, 35 °C; no added cofactor

O=C(O)c1cccc(O)c1 [3-hydroxybenzoic acid]
whole-cell biotransformation, ABAO assay of 3-hydroxybenzaldehyde at 360 nm: The biotransformation consists of the conversion of 3-hydroxybenzoic acid to 3-hydroxybenzaldehyde
